Laboratory results taken from ChEMBL document CHEMBL3797156, “(7-Diethylaminocoumarin-4-yl)methyl ester of suberoylanilide hydroxamic acid as a caged inhibitor for photocontrol of histone deacetylase activity” (Bioorg Med Chem, 2016).
Calls of active or inactive are those of the source. The rule behind the calls is not given here.

Legend:
[1] = Prodrug conversion in tris buffer assessed as suberoyl anilide hydroxamic acid formation at 200 uM followed 400 to 430 nm irradiation for 10 mins by HPLC analysis; format: ADME
[2] = biological target: T1, Histone deacetylase (Homo sapiens) (UniProt Q13547+O15379+Q9UBN7+Q92769+Q9UQL6+Q8WUI4+Q9BY41+Q96DB2+P56524+Q9UKV0+Q969S8); assay: Inhibition of human HDAC in HeLa cell nuclear extract in presence of irradiation at 400 to 430 nm for 1 to 10 mins incubated for 60 mins by HDAC-Glo 1/2 reagent based chemiluminescence analysis; format: cell-free
[3] = biological target: T1, Histone deacetylase (Homo sapiens); assay: Inhibition of human HDAC in HeLa cell nuclear extract for 60 mins by HDAC-Glo 1/2 reagent based chemiluminescence analysis; format: cell-free
HCT-116 = assay: Cytotoxicity against human HCT116 cells assessed as inhibition of cell growth at 10 and 30 uM preincubated for 3 hrs followed irradiation at 400 - 430 nm for 1, 3 and 10 min measured after 48 hrs by CellTiter-Glo assay; format: functional, cell-based

In the case of `CCN(CC)c1ccc2c(CONC(=O)CCCCCCC(=O)Nc3ccccc3)cc(=O)oc2c1`, the Drug metabolism [1] is reported as 54 µM, the inhibition [2] is reported as “Active” and the inhibition [3] is reported as “inactive”. The Activity (HCT-116) was “Active”.
